Reference: the CheMixHub ionic liquid set

Test: xn = mol fraction of the nth substance listed
Settings: for electrical conductivity: 298 K

CCCC[N+](CCCC)(CCCC)CCCC.O=S(=O)([O-])O + O=C1O[C@H]([C@@H](O)CO)C(O)=C1O + O
viscosity [mPa·s], 101 kPa
Settings | 298.15 K | 308.15 K | 318.15 K
x2 = 0.0003644, x1 = 0.0003601 | 0.908 | 0.734 | 0.61
x2 = 0.0003645, x1 = 9.006e-05 | 0.901 | 0.726 | 0.603
x2 = 0.000365, x1 = 0.0001801 | 0.903 | 0.729 | 0.605
x2 = 0.0003656, x1 = 0.0002701 | 0.906 | 0.731 | 0.607
x2 = 0.0006576, x1 = 0.0001801 | 0.91 | 0.734 | 0.608
x2 = 0.0006584, x1 = 9.003e-05 | 0.908 | 0.732 | 0.606
x2 = 0.0006587, x1 = 0.00027 | 0.912 | 0.737 | 0.611
x2 = 0.0006597, x1 = 0.00036 | 0.915 | 0.739 | 0.614
x2 = 0.0009539, x1 = 9.001e-05 | 0.913 | 0.737 | 0.611
x2 = 0.0009554, x1 = 0.00018 | 0.917 | 0.74 | 0.612
x2 = 0.0009567, x1 = 0.0003599 | 0.921 | 0.745 | 0.619
x2 = 0.0009569, x1 = 0.00027 | 0.919 | 0.742 | 0.617
x2 = 0.001253, x1 = 8.998e-05 | 0.92 | 0.743 | 0.615
x2 = 0.001255, x1 = 0.0001799 | 0.922 | 0.745 | 0.616
x2 = 0.001255, x1 = 0.0002699 | 0.924 | 0.748 | 0.621
x2 = 0.001257, x1 = 0.0003598 | 0.928 | 0.751 | 0.624
x2 = 0.001553, x1 = 8.995e-05 | 0.925 | 0.747 | 0.62
x2 = 0.001556, x1 = 0.0001799 | 0.929 | 0.75 | 0.622
x2 = 0.001558, x1 = 0.0002698 | 0.931 | 0.754 | 0.626
x2 = 0.001561, x1 = 0.0003597 | 0.934 | 0.757 | 0.629
x2 = 0.001859, x1 = 8.992e-05 | 0.931 | 0.751 | 0.625
x2 = 0.00186, x1 = 0.0001798 | 0.934 | 0.755 | 0.627
x2 = 0.001863, x1 = 0.0002697 | 0.938 | 0.758 | 0.631
x2 = 0.001866, x1 = 0.0003596 | 0.94 | 0.762 | 0.634

CCCOCCn1cc[n+](C)c1.O=S(=O)([N-]S(=O)(=O)C(F)(F)F)C(F)(F)F + O
101 kPa, x1 = 0.8306
Settings | viscosity [mPa·s]
283 K | 78.3
298.1 K | 38.7

CC[n+]1ccn(CCOC)c1.N#C[S-] + CCCO
viscosity [mPa·s], 100 kPa
Settings | x1 = 0.1001 | x1 = 0.2 | x1 = 0.3001 | x1 = 0.4001 | x1 = 0.5001 | x1 = 0.5719 | x1 = 0.701 | x1 = 0.7997 | x1 = 0.8987 | x1 = 1
288.15 K | 3.83 | 5.71 | 8.65 | 14.3 | 20 | 28.2 | 39.1 | 55.7 | 71.5 | 93.1
293.15 K | 3.38 | 4.99 | 7.53 | 12.15 | 16.78 | 23.3 | 31.8 | 44.1 | 56.7 | 70.8
298.15 K | 2.99 | 4.4 | 6.62 | 10.43 | 13.84 | 19.7 | 26.2 | 35.7 | 45.6 | 55.8
303.15 K | 2.66 | 3.94 | 5.88 | 9.06 | 11.68 | 16.75 | 21.9 | 29.3 | 37.4 | 44.3
308.15 K | 2.39 | 3.52 | 5.25 | 7.95 | 10.04 | 13.92 | 19.2 | 24.4 | 31.1 | 36
313.15 K | 2.15 | 3.16 | 4.72 | 7.03 | 8.8 | 11.81 | 16.05 | 20.6 | 26 | 29.7
318.15 K | 1.94 | 2.84 | 4.24 | 6.22 | 7.8 | 10.16 | 13.47 | 17.99 | 22 | 24.9

CCOS(=O)(=O)[O-].CC[n+]1ccn(C)c1 + CCO + O
298.15 K, 101 kPa
Settings | viscosity [mPa·s]
x2 = 0.0425, x3 = 0.9493 | 1.473
x2 = 0.0462, x3 = 0.9365 | 1.767
x2 = 0.054, x3 = 0.9172 | 2.239
x2 = 0.0603, x3 = 0.8923 | 2.787
x2 = 0.0723, x3 = 0.8613 | 3.311
x2 = 0.0829, x3 = 0.8208 | 4.237
x2 = 0.0885, x3 = 0.9037 | 2.015
x2 = 0.0898, x3 = 0.1724 | 43.71
x2 = 0.0906, x3 = 0.3653 | 26.4
x2 = 0.1018, x3 = 0.8819 | 2.162
x2 = 0.1162, x3 = 0.8569 | 2.603
x2 = 0.1307, x3 = 0.8254 | 2.848
x2 = 0.1473, x3 = 0.8454 | 2.302
x2 = 0.1532, x3 = 0.7862 | 3.265
x2 = 0.1618, x3 = 0.823 | 2.558
x2 = 0.1776, x3 = 0.736 | 3.981
x2 = 0.1798, x3 = 0.7952 | 2.666
x2 = 0.1867, x3 = 0.3267 | 19.71
x2 = 0.203, x3 = 0.4762 | 11.23
x2 = 0.2036, x3 = 0.7562 | 3.061
x2 = 0.213, x3 = 0.6721 | 4.695
x2 = 0.2156, x3 = 0.7777 | 2.443
x2 = 0.2354, x3 = 0.7098 | 3.148
x2 = 0.2358, x3 = 0.7503 | 2.537
x2 = 0.2581, x3 = 0.7192 | 2.751
x2 = 0.2884, x3 = 0.6757 | 2.836
x2 = 0.2972, x3 = 0.6968 | 2.342
x2 = 0.3097, x3 = 0.4125 | 8.578
x2 = 0.3172, x3 = 0.5831 | 4.026
x2 = 0.3196, x3 = 0.668 | 2.391
x2 = 0.3235, x3 = 0.6281 | 3.109
x2 = 0.3439, x3 = 0.6361 | 2.653
x2 = 0.3528, x3 = 0.1226 | 18.65
x2 = 0.354, x3 = 0.5781 | 3.217
x2 = 0.3804, x3 = 0.5884 | 2.55
x2 = 0.3862, x3 = 0.6086 | 2.334
x2 = 0.4044, x3 = 0.3559 | 6.856
x2 = 0.4138, x3 = 0.5756 | 2.347
x2 = 0.4195, x3 = 0.5389 | 2.799
x2 = 0.4403, x3 = 0.5426 | 2.299
x2 = 0.4582, x3 = 0.4849 | 2.967
x2 = 0.4657, x3 = 0.1012 | 12.87
x2 = 0.4793, x3 = 0.4944 | 2.444
x2 = 0.4911, x3 = 0.5046 | 2.027
x2 = 0.521, x3 = 0.4447 | 2.385
x2 = 0.5486, x3 = 0.4376 | 2.109
x2 = 0.5636, x3 = 0.3905 | 2.443
x2 = 0.6042, x3 = 0.159 | 5.533
x2 = 0.6339, x3 = 0.3399 | 1.976
x2 = 0.6484, x3 = 0.2101 | 3.5
x2 = 0.6523, x3 = 0.3414 | 1.735
x2 = 0.6548, x3 = 0.0654 | 6.067
x2 = 0.6675, x3 = 0.2976 | 2.007
x2 = 0.7086, x3 = 0.2767 | 1.737
x2 = 0.7178, x3 = 0.241 | 2.045
x2 = 0.7723, x3 = 0.2038 | 1.728
x2 = 0.8545, x3 = 0.0276 | 2.451
x2 = 0.8653, x3 = 0.125 | 1.406
x2 = 0.9072, x3 = 0.0792 | 1.343
x2 = 0.9667, x3 = 0.0134 | 1.317

CCCCCCCCn1cc[n+](C)c1C.[Cl-] + O
101 kPa
Settings | electrical conductivity [S/m]
x1 = 2.703e-05 | 0.02
x1 = 0.0001369 | 0.09
x1 = 0.000245 | 0.14
x1 = 0.0003531 | 0.2
x1 = 0.0004899 | 0.27
x1 = 0.0007347 | 0.32
x1 = 0.0008984 | 0.41
x1 = 0.001197 | 0.48
x1 = 0.001468 | 0.58
x1 = 0.001766 | 0.69
x1 = 0.002039 | 0.79
x1 = 0.002391 | 0.88
x1 = 0.002715 | 0.99
x1 = 0.003203 | 1.14
x1 = 0.003772 | 1.32
x1 = 0.004474 | 1.48
x1 = 0.005202 | 1.66
x1 = 0.005876 | 1.77
x1 = 0.006575 | 1.9
x1 = 0.007219 | 2.02
x1 = 0.007783 | 2.11
x1 = 0.008319 | 2.19
x1 = 0.0088 | 2.26
x1 = 0.009202 | 2.34
x1 = 0.009496 | 2.39
